# Literature values, collected in patent EP0086705A1, “Aqueous solution of ursodeoxycholic acid for therapeutic uses, process for its preparation and its utilization for the treatment of cholelithiasis” (S.A. PANMEDICA Société dite:, priority 1982, dated 1983).
# Details: 37"C
smiles,measurement,value
C[C@H](CCC(=O)O)[C@H]1CC[C@H]2[C@@H]3[C@H](O)C[C@@H]4C[C@H](O)CC[C@]4(C)[C@H]3CC[C@]12C [acide chénodésoxycholique],pH de précipitation de la solution,"7,0"
